# T1: TUT7 (Homo sapiens, UniProt Q5VYS8)
# T1 construct: full-length wild type 1-1495; TEV-cleavable N-terminal His6-GST tag, C-terminal twin Strep tag; E. coli KRX
# T1 sequence (Q5VYS8 1-1495): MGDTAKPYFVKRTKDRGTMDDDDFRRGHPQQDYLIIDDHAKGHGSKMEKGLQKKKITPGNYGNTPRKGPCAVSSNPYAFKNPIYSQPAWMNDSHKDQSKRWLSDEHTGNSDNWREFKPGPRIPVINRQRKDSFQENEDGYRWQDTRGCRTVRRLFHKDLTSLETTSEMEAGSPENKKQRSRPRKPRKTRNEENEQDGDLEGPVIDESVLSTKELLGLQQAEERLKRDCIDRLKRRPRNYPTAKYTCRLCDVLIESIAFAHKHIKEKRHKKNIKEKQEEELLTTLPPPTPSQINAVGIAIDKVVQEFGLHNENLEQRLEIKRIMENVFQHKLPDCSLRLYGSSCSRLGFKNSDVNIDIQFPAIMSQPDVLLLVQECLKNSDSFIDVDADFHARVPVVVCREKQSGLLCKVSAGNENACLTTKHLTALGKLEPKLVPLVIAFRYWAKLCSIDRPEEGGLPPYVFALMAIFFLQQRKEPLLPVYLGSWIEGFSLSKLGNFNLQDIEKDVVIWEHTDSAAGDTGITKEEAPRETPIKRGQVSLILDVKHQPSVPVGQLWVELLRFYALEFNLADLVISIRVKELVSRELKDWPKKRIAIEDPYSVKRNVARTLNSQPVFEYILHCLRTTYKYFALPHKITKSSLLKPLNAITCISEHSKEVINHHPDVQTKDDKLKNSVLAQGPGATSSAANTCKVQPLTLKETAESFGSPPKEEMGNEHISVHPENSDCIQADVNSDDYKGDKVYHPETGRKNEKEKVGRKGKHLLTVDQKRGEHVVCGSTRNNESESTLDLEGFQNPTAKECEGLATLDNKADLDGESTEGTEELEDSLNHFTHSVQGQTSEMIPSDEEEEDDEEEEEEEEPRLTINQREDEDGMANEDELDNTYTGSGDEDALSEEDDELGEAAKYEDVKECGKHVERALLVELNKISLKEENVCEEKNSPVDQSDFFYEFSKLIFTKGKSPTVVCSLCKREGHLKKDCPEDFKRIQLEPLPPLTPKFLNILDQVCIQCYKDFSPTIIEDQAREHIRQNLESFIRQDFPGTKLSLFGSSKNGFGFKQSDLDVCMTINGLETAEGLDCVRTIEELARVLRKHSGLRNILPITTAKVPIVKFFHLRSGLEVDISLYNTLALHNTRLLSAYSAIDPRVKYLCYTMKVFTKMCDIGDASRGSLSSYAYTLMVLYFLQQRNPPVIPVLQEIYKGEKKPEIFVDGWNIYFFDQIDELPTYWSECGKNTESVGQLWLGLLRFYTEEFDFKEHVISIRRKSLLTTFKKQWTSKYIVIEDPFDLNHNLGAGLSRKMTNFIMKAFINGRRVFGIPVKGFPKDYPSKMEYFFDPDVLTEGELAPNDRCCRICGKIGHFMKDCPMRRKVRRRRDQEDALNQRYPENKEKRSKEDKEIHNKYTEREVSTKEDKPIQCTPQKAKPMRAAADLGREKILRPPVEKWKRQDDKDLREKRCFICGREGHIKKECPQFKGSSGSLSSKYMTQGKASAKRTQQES
# T2: TUT7 (ZCCHC6) (Homo sapiens, UniProt Q5VYS8 1-1495)
# T2 sequence: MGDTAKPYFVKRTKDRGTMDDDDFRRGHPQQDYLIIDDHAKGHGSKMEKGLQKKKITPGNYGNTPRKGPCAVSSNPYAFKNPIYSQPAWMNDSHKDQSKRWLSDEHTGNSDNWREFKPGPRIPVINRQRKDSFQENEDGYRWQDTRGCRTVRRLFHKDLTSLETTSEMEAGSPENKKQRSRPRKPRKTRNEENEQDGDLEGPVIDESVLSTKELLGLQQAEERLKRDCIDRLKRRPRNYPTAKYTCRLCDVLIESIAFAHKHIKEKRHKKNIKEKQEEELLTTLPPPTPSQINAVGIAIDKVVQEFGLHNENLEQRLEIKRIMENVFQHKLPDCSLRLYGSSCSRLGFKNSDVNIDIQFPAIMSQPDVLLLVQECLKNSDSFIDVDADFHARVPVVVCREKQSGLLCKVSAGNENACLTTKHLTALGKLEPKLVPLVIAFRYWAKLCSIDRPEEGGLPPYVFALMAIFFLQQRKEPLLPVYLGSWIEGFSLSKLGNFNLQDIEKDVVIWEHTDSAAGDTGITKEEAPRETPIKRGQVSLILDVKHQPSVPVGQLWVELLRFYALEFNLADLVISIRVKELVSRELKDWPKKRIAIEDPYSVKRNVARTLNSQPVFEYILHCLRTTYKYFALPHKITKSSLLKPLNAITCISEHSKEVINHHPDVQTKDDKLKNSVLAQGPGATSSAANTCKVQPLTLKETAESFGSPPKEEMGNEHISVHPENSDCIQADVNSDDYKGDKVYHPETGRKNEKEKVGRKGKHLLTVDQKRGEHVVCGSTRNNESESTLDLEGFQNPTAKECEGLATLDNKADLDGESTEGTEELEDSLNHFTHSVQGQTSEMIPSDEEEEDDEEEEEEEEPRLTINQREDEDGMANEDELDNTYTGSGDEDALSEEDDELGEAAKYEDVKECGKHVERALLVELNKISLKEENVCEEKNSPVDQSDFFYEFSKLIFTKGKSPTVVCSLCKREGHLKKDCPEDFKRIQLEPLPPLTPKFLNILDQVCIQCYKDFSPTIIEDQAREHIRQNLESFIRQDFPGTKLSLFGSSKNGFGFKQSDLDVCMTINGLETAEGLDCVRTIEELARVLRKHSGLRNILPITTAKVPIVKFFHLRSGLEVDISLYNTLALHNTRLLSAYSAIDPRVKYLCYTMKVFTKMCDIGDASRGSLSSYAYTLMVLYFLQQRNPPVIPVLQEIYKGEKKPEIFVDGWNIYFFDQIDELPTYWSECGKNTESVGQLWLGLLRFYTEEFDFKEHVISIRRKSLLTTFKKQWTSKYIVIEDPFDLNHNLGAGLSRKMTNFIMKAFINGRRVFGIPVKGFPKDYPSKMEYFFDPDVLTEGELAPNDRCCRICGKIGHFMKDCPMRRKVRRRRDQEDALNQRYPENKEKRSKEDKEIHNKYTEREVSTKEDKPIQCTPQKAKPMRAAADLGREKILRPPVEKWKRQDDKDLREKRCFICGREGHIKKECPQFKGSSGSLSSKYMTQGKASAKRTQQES
# T3: human terminal uridylyltransferase 7 (TUT7), full length (1-1495) (human, UniProt Q5VYS8 1-1495)
# T3 construct: TUT7 (ZCCHC6), human, residues 1-1495, wild type, synthesised gene; The His6-GST tag is cleavable by tobacco etch virus protease; Unmodified (not PEGylated) enzyme was used for the complexes; also called ZCCHC6; source: E. coli KRX, purified (Strep-XT 4Flow beads, Heparin column, size-exclusion chromatography)
# T3 sequence (looked up): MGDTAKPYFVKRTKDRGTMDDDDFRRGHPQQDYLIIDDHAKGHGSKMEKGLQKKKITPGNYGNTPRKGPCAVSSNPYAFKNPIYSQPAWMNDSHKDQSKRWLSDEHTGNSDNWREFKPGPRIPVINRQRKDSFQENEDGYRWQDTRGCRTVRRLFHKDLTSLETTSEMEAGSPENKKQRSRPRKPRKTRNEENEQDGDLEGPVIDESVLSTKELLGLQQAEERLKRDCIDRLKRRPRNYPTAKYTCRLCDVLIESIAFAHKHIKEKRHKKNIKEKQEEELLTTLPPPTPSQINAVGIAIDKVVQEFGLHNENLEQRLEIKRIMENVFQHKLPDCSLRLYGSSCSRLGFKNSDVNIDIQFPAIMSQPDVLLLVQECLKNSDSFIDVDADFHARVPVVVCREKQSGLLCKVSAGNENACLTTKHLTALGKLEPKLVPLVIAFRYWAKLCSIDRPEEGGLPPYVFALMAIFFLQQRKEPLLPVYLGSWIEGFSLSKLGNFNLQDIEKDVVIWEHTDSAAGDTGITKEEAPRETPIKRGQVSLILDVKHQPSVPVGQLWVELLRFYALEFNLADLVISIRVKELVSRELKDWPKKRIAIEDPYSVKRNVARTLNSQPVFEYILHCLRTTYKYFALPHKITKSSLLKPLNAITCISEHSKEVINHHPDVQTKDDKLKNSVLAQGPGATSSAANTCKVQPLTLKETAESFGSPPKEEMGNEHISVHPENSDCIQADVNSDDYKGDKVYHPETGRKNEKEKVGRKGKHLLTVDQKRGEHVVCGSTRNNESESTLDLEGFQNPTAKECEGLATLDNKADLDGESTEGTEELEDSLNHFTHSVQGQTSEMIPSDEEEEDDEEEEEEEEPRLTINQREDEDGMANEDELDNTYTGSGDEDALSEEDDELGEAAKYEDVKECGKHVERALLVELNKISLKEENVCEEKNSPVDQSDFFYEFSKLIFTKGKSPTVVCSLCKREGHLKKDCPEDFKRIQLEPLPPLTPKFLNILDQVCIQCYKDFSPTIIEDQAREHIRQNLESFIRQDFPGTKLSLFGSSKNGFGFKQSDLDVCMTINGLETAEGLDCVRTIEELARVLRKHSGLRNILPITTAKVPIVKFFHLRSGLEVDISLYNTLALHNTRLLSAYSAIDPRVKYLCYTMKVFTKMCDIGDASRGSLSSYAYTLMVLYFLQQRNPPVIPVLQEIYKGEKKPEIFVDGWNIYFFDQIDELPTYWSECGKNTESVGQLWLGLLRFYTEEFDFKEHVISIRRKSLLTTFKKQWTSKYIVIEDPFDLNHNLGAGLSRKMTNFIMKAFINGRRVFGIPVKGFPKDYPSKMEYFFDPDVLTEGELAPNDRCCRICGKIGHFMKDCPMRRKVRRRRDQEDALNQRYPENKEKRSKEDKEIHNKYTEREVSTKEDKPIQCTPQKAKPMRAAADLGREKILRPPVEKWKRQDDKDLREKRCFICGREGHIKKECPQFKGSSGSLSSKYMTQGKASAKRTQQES
# What was measured:
# [1] = molecular target: T1, TUT7; assay: in vitro uridylation of labelled pre-let-7g, denaturing PAGE; assay type: biochemical; conditions: pre-let-7g RNA co-substrate, no LIN28A, 0.5 mM UTP, 5 mM MgCl2, 50 µM ZnCl2, pH 7.8, 37 °C
# [2] = molecular target: T1, TUT7; assay: cryo-EM structure, […] Å; assay type: binding; conditions: pre-let-7g, 2 mM CaCl2, 0.5 mM UTPαS, pH 7.8; catalytic pocket of the CM (active site)
# [3] = molecular target: T2, TUT7 (ZCCHC6); assay: cryo-EM; UTPalphaS; binary complex, 3.55 A; EMSA: 20 mM HEPES pH 7.8, 100 mM NaCl, 2 mM CaCl2, 50 uM ZnCl2, 5% glycerol, 5 mM DTT, 0.5 mM UTP, RNase inhibitor, on ice 30 min; 0.1 uM RNA, 0.2 uM TUT, 0.3 uM LIN28A; native gel in 1x TBE at 4 C; conditions: protein: recombinant; tags: N-term His6-GST (TEV cleavable), C-term twin-Strep; hairpin, 1 nt 3' overhang
# [4] = molecular target: T3, human terminal uridylyltransferase 7 …; assay: cryo-EM structure; ternary complexes of TUT7 or TUT4 with pre-let-7g RNA and LIN28A mixed at a molar ratio of 1:1.5:2, overnight on ice with 0.5 mM UTPalphaS, 2 mM DTT, 2 mM CaCl2, then SEC in 20 mM HEPES pH 7.8, 100 mM NaCl; conditions: both partners purified
molecule,measurement,setting,value
O=c1ccn([C@@H]2O[C@H](COP(=O)(O)OP(=O)(O)OP(=O)(O)O)[C@@H](O)[C@H]2O)c(=O)[nH]1 [UTP],"in vitro uridylation of labelled pre-let-7g, denaturing PAGE",[1],In vitro activity assays for TUT7 showing mono-uridylation activity in the absence of LIN28A
O=c1ccn([C@@H]2O[C@H](COP(O)(=S)OP(=O)(O)OP(=O)(O)O)[C@@H](O)[C@H]2O)c(=O)[nH]1 (stereo partly shown) [UTPαS],"cryo-EM structure, 3.55 Å",[2],"UTPαS bound and stabilized by the critical residues; F1045, S1047, Q1124, L1126, N1130"
pre-let-7g (structured_RNA) RNA: UGAGGUAGUAGUUUGUACAGUUUGAGGGUCUAUGAUACCACCCGGUACAGGAGAUAACUGUACAGGCCACUGCCUUGC,binding result,[3],binds
"human LIN28A (natural protein, LIN28A, human, synthesised gene; Expressed as an N-terminal His6-GST fusion; removal of the tag is not described; The phrase 'full-length wild-type human TUT7 and human LIN28A' may or may not mean that LIN28A was full length; Only the ZK domain is resolved in the maps) MGSVSNQQFAGGCAKAAEEAPEEAPEDAARAADEPQLLHGAGICKWFNVRMGFGFLSMTARAGVALDPPVDVFVHQSKLHMEGFRSLKEGEAVEFTFKKSAKGLESIRVTGPGGVFCIGSERRPKGKSMQKRRSKGDRCYNCGGLDHHAKECKLPPQPKKCHFCQSISHMVASCPLKAQQGPSAQGKPTYFREEEEEIHSPTLLPEAQN",binding result,[4],binds

# Source: paper PMC11402785, “Structural basis for activity switching in polymerases determining the fate of let-7 pre-miRNAs” (Nature Structural & Molecular Biology, 2024)
